In BindingDB's records for doi:10.1007/s00044-011-9938-0 (n/a, 2012):

These molecules were tested against Alpha-glucosidase MAL62 (Saccharomyces cerevisiae, UniProt P07265) (assay: Inhibition of baker's yeast alpha-glucosidase using p-nitrophenyl-alpha-D-glucopyranoside as substrate by spectrophotometry).
Alpha-glucosidase MAL62, sequence (P07265 whole entry): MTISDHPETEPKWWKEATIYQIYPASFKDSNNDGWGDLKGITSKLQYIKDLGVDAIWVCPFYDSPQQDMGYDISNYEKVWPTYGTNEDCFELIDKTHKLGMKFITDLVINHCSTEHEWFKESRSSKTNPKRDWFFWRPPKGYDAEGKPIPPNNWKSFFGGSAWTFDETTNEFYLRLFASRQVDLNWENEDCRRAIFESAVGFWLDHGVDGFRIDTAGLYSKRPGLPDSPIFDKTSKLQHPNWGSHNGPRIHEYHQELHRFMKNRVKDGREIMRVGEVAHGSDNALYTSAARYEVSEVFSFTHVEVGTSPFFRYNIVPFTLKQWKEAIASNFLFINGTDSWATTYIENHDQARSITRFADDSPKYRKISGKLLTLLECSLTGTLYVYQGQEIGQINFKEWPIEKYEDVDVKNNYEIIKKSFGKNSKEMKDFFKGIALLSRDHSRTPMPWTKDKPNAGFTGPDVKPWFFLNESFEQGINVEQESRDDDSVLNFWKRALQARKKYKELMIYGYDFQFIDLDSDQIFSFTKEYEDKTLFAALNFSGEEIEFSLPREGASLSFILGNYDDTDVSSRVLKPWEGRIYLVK
`O=C(O)/C=C/c1ccc(O)cc1` [p-Coumaric Acid] showed an IC50 of 200 µM. With `CC(C)=CCc1cc(C(=O)/C=C/c2ccc(O)c(O)c2)c(O)cc1O` [broussochalcone A] the IC50 was 5.3 µM. For `C=CC(C)(C)c1c(O)cc(O)c2c(=O)c3oc4c(CC=C(C)C)c(O)c(OCC=C(C)C)cc4c3oc12`, the IC50 was 33.3 µM. In the case of `COc1ccc([C@@H]2CC(=O)c3c(O)cc(O)cc3O2)cc1O` [(2S)-5,7-dihydroxy-2-(3-hydroxy-4-methoxyphenyl)-3,4-dihydro-2H-1-benzopyran-4-one], the IC50 is reported as 150 µM. With `O=c1c(O)c(-c2ccc(O)cc2O)oc2cc(O)cc(O)c12` [2-(2,4-dihydroxyphenyl)-3,5,7-trihydroxychromen-4-one] the IC50 was 40 µM. For `C=C(C)C(CCC(C)(C)O)Cc1c(O)cc(OC)c2c1OC(c1ccc(O)cc1O)CC2=O` (stereo not drawn), the IC50 was 179 µM. In the case of `O=c1c(-c2ccc(O)cc2)coc2cc(O)cc(O)c12` [Prunetol], the IC50 is reported as 7 µM. `C=C(C)C(CC=C(C)C)Cc1c(O)cc(O)c2c1OC(c1ccccc1O)CC2=O` (stereo not drawn) was tested, and the IC50 was 45 µM. For `C=C(C)C(CC=C(C)C)Cc1c(O)cc(OC)c2c1OC(c1ccc(OC)cc1O)CC2=O` (stereo not drawn), the IC50 was 155 µM. In the case of `COc1cccc(/C=C/C(=O)O)c1`, the IC50 is reported as 579 µM. Molecule `O=C(O)c1cc(O)c(O)c(O)c1` [Gallic Acid, F] has an IC50 of 5.2 µM. Work on `O=C(O)/C=C/c1ccc(F)cc1` yielded an IC50 of 270 µM. Molecule `CC1(C)C=Cc2cc(C(=O)/C=C/c3ccc(O)cc3)c(O)cc2O1` [4-HYDROXYISOLONCHOCARPIN] has an IC50 of 12.3 µM. In the case of `O=C1C[C@@H](c2ccc(O)cc2)Oc2cc(O)cc(O)c21`, the IC50 is reported as 75 µM. `O=c1c(O)c(-c2ccc(O)c(O)c2)oc2cc(O)cc(O)c12` [2-(3,4-dihydroxyphenyl)-3,5,7-trihydroxy-chromone;hydrate] gave an IC50 of 7 µM. `Oc1cc(O)c2c(c1)O[C@H](c1ccc(O)c(O)c1)[C@@H](O)C2` [CHEBI:23053] gave an IC50 of 130 µM. For `Oc1cc(O)c2c(c1)O[C@H](c1cc(O)c(O)c(O)c1)[C@H](O)C2` [CHEBI:71224], the IC50 was 75 µM. With `O=c1c(O)c(-c2ccc(O)c(O)c2)oc2cc(O)ccc12` [2-(3,4-dihydroxyphenyl)-3,7-dihydroxy-chromen-4-one] the IC50 was 13 µM. `O=C(O)/C=C/c1ccc(Cl)cc1` [CHEBI:61116] was tested, and the IC50 was 390 µM. With `O=C(O[C@@H]1Cc2c(O)cc(O)cc2O[C@@H]1c1cc(O)c(O)c(O)c1)c1cc(O)c(O)c(O)c1` [epigallocatechin gallate] the IC50 was 2 µM. `O=c1cc(O)cc2oc(-c3ccc(O)c(O)c3)c(O)cc1-2` showed an IC50 of 4 µM. Molecule `C=C(C)C(CC=C(C)C)Cc1c(O)cc(OC)c2c1OC(c1ccc(O)cc1O)CC2=O` (stereo not drawn) has an IC50 of 68.1 µM. With `COc1cc(O)c(C(C)=C(C)C)c2c1C(=O)CC(c1ccc(O)cc1)O2` (stereo not drawn) the IC50 was 358 µM. `O=c1c(O)c(-c2ccc(O)cc2)oc2cc(O)cc(O)c12` showed an IC50 of 12 µM. For `C=CC(C)(C)c1cc2c(cc1O)OC(c1cc(O)c(O)c(CC=C(C)C)c1C/C=C\C)CC2` (stereo not drawn), the IC50 was 10.6 µM. Molecule `O=c1c(-c2ccc(O)cc2)coc2cc(O)ccc12` has an IC50 of 14 µM. `O=C(O)/C=C/c1cccc(O)c1` [(2E)-3-(3-hydroxyphenyl)prop-2-enoic acid] was tested, and the IC50 was 1270 µM. In the case of `CC(C)=CCc1c(C2CCc3ccc(O)cc3O2)cc2c(c1O)OC(C)(C)C=C2` (stereo not drawn), the IC50 is reported as 26.3 µM. `OC[C@H]1OC(OC2=C(c3cc(O)c(O)c(O)c3)Oc3cc(O)cc(O)c3C2)[C@@H](O)[C@@H](O)[C@@H]1O` (stereo partly drawn) showed an IC50 of 30 µM. With `CCOC(=O)/C=C/c1ccc(OC)cc1` [4-Methoxy Ethyl Cinnamate] the IC50 was 50 µM. `CC(C)=CCc1cc(C2CCc3ccc(O)cc3O2)c(CC=C(C)C)c(O)c1O` (stereo not drawn) showed an IC50 of 12 µM. For `CC(C)=CCc1cc(C(=O)/C=C/c2ccc(O)cc2)c(O)cc1O` [BROUSSOCHALCONE B], the IC50 was 11.1 µM. For `O=C(O)/C=C/c1ccc(Oc2ccccc2)cc1`, the IC50 was 440 µM. `O=c1c(O)c(-c2cc(O)c(O)c(O)c2)oc2cc(O)cc(O)c12` showed an IC50 of 5 µM. For `C=CC(C)(C)c1c(O)cc(O)c2c(=O)c3oc4c5c(c(OCC=C(C)C)cc4c3oc12)OC(C)(C)C=C5`, the IC50 was 27.6 µM. `CC1(C)C=Cc2cc(C(=O)/C=C/c3ccc(O)c(O)c3)c(O)cc2O1` was tested, and the IC50 was 19.1 µM. `COc1ccc(/C=C/C(=O)O)cc1` [3-(4-methoxyphenyl)acrylic acid] showed an IC50 of 40 µM. `O=c1cc(-c2ccc(O)c(O)c2)oc2cc(O)cc(O)c12` [2-(3,4-dihydroxyphenyl)-5,7-dihydroxy-4H-chromen-4-one] showed an IC50 of 21 µM. For `C=CC(C)(C)c1c(O)cc(O)c2c(=O)c(O)c(-c3cc(O)c(O)c(CC=C(C)C)c3)oc12` [2-[3,4-Dihydroxy-5-(3-methyl-but-2-enyl)-phenyl]-8-(1,1-dimethyl-allyl)-3,5,7-trihydroxy-chromen-4-one], the IC50 was 3.6 µM. In the case of `CC(C)=CCc1cc(C2CCc3ccc(O)cc3O2)cc(O)c1O` (stereo not drawn) [5-(7-Hydroxy-chroman-2-yl)-3-(3-methyl-but-2-enyl)-benzene-1,2-diol], the IC50 is reported as 75.7 µM. Molecule `OC[C@H]1OC(OC2=C(c3ccc(O)c(O)c3)Oc3cc(O)cc(O)c3C2)[C@@H](O)[C@@H](O)[C@@H]1O` (stereo partly drawn) has an IC50 of 20 µM. `CC(C)=CCc1cc(-c2oc3cc(O)c(CC=C(C)C)c(O)c3c(=O)c2O)cc(O)c1O` [CHEBI:66727] showed an IC50 of 2.1 µM. `C=C(C)C(CC=C(C)C)Cc1c(O)cc(O)c2c1OC(c1ccc(O)cc1O)CC2=O` (stereo not drawn) gave an IC50 of 37 µM.
